In patent US11591355B2 (Peloton Therapeutics, Inc., priority 2017, dated 2023):
pIC50: −log10 of the molar value. Like-named read-outs stand apart in the source and are kept apart here.

What was measured:
[1] = target: T1, Human CD73 (Homo sapiens, UniProt P21589); experiment: CD73 Enzyme Assay; format: biochemical; conditions: read-out: CD73 Enzyme Assay IC50
T1 construct: purchased R&D Systems; host or cells: CHO cells
T1 sequence (P21589 27-549): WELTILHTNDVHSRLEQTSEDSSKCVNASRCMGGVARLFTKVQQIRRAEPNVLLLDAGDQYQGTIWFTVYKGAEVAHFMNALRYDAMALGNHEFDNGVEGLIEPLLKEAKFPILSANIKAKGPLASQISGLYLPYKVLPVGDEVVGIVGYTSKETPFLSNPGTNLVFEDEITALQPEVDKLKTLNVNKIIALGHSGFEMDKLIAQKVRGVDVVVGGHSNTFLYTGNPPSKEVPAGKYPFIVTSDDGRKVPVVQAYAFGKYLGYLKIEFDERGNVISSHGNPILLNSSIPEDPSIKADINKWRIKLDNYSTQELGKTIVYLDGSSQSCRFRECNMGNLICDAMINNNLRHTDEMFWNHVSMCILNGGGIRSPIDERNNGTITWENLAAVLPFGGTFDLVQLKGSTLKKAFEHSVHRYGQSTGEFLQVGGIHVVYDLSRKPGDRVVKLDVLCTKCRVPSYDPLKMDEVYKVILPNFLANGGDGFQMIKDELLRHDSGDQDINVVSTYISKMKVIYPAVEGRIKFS

[2] = target: T2, CD73 on U138 human neuroglioma cells (Homo sapiens, UniProt P21589); experiment: CD73 Cell-Based Assay
T2 construct: U138 cells were obtained from ATCC and cultured in DMEM with 10% FBS; host or cells: U138 human neuroglioma cells
T2 sequence (P21589 27-549): T1 sequence (P21589 27-549)
In short: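 Whole U138 cells washed free of phosphate were incubated with 200 μM AMP (mixture concentration before equal-volume addition) plus compound in HEPES-buffered saline, pH 7.4, for 2 h at 37 °C, 5% CO2. Adenosine-forming activity read as inorganic phosphate released into supernatant by malachite green.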

[3] = 0.25 nM hCD73, 25 μM AMP, kinetic read at 360 nm
[4] = U138 cells, AMP substrate, 2 hours at 37° C., inorganic phosphate by malachite green

pIC50 [1, 3] | pIC50 [2, 4] | SMILES | pIC50 [1] | pIC50 [2]
< 6.00 | < 6.00 | CC(C)(C)C(=O)OCOP(=O)(COC[C@H]1O[C@@H](n2ccc3c(NC4CCCC4)nc(Cl)nc32)[C@H](O)[C@@H]1O)OCOC(=O)C(C)(C)C [Compound 187, [[(2R,3S,4R,5R)-5-[2-chloro-4-(cyclopentyl-amino)pyrrolo[2,3-d]-pyrimidin-7-yl]-3,4-dihydroxy-tetrahydro-furan-2-yl]methoxy-methyl-(2,2-dimethyl-propanoyloxymethoxy)-phosphoryl]oxymethyl 2,2-dimethylpropanoate] | – | –
> 8.00 | 6.00 to 7.00 | CC(C)(C)C(=O)OCOP(=O)(O)COC[C@H]1O[C@@H](n2ccc3c(NC4CCCC4)nc(Cl)nc32)[C@H](O)[C@@H]1O [Compound 188, [(2R,3S,4R,5R)-5-[2-chloro-4-(cyclopentyl-amino)pyrrolo[2,3-d]-pyrimidin-7-yl]-3,4-dihydroxy-tetrahydro-furan-2-yl]methoxy-methyl-(2,2-dimethyl-propanoyloxymethoxy)-phosphinic acid] | – | –
> 8.00 | > 8.00 | CN(c1nc(Cl)nc2c1ccn2[C@@H]1O[C@H](COCP(=O)(O)O)[C@@H](O)[C@H]1O)C1CCCC1 [Compound 192, [(2R,3S,4R,5R)-5-[2-chloro-4-[cyclopentyl-(methyl)amino]pyrrolo-[2,3-d]pyrimidin-7-yl]-3,4-dihydroxy-tetra-hydrofuran-2-yl]-methoxymethylphos-phonic acid] | – | –
7.00 to 8.00 | 7.00 to 8.00 | CC(C)OC(=O)OCOP(=O)(O)COC[C@H]1O[C@@H](n2ccc3c(NC4CCCC4)nc(Cl)nc32)[C@H](O)[C@@H]1O [Compound 193, [(2R,3S,4R,5R)-5-[2-chloro-4-(cyclopentyl-amino)pyrrolo[2,3-d]-pyrimidin-7-yl]-3,4-dihydroxy-tetrahydro-furan-2-yl]methoxy-methyl-(isopropoxy-carbonyloxymethoxy)-phosphinic acid] | – | –
> 8.00 | > 8.00 | CC(C)C(=O)OCOP(=O)(O)COC[C@H]1O[C@@H](n2ccc3c(NC4CCCC4)nc(Cl)nc32)[C@H](O)[C@@H]1O [Compound 194, [(2R,3S,4R,5R)-5-[2-chloro-4-(cyclopentyl-amino)pyrrolo[2,3-d]-pyrimidin-7-yl]-3,4-dihydroxy-tetrahydro-furan-2-yl]methoxy-methyl-(2-methyl-propanoyloxymeth-oxy)phosphinic acid] | – | –
> 8.00 | > 8.00 | CCN(c1nc(Cl)nc2c1ccn2[C@@H]1O[C@H](COCP(=O)(O)O)[C@@H](O)[C@H]1O)C1CCCC1 [Compound 195, [(2R,3S,4R,5R)-5-[2-chloro-4-[cyclopentyl-(ethyl)amino]pyrrolo-[2,3-d]pyrimidin-7-yl]-3,4-dihydroxy-tetra-hydrofuran-2-yl]-methoxymethylphos-phonic acid] | – | –
> 8.00 | > 8.00 | O=P(O)(O)COC[C@H]1O[C@@H](n2ccc3c(N(CC4CC4)C4CCCC4)nc(Cl)nc32)[C@H](O)[C@@H]1O [Compound 196, [(2R,3S,4R,5R)-5-[2-chloro-4-[cyclopentyl-(cyclopropylmethyl)-amino]pyrrolo[2,3-d]-pyrimidin-7-yl]-3,4-dihydroxy-tetrahydro-furan-2-yl]methoxy-methylphosphonic acid] | – | –
< 6.00 | < 6.00 | Cc1cn([C@@H]2O[C@H](COCP(=O)(O)O)[C@@H](O)[C@H]2O)c2nc(Cl)nc(NC3CCCC3)c12 [Compound 199, [(2R,3S,4R,5R)-5-[2-chloro-4-(cyclopentyl-amino)-5-methyl-pyrrolo[2,3-d]-pyrimidin-7-yl]-3,4-dihydroxy-tetrahydro-furan-2-yl]methoxy-methylphosphonic acid] | – | –
7.00 to 8.00 | 7.00 to 8.00 | Cc1cc2c(NC3CCCC3)nc(Cl)nc2n1[C@@H]1O[C@H](COCP(=O)(O)O)[C@@H](O)[C@H]1O [Compound 200, [(2R,3S,4R,5R)-5-[2-chloro-4-(cyclopentyl-amino)-6-methyl-pyrrolo[2,3-d]-pyrimidin-7-yl]-3,4-dihydroxy-tetrahydro-furan-2-yl]methoxy-methylphosphonic acid] | – | –
7.00 to 8.00 | 7.00 to 8.00 | COC(=O)OCOP(=O)(O)COC[C@H]1O[C@@H](n2ccc3c(NC4CCCC4)nc(Cl)nc32)[C@H](O)[C@@H]1O [Compound 202, [(2R,3S,4R,5R)-5-[2-chloro-4-(cyclopentyl-amino)pyrrolo[2,3-d]-pyrimidin-7-yl]-3,4-dihydroxy-tetrahydro-furan-2-yl]methoxy-methyl-(methoxy-carbonyloxymethoxy)-phosphinic acid] | – | –
6.00 to 7.00 | 7.00 to 8.00 | CC(C)(C)C(=O)OCOP(=O)(COC[C@H]1O[C@@H](n2ccc3c(N4CC5CCCC5C4)nc(Cl)nc32)[C@H](O)[C@@H]1O)OCOC(=O)C(C)(C)C (stereo partly drawn) [Compound 203, [[(2R,3S,4R,5R)-5-[4-(3,3a,4,5,6,6a-hexa-hydro-1H-cyclopenta-[c]pyrrol-2-yl)-2-chloro-pyrrolo[2,3-d]-pyrimidin-7-yl]-3,4-dihydroxy-tetrahydro-furan-2-yl]methoxy-methyl-(2,2-dimethyl-propanoyloxymethoxy)-phosphoryl]oxymethyl 2,2-dimethylpropanoate] | – | –

Continued, molecule first:

SMILES | pIC50 [1, 3] | pIC50 [2, 4] | pIC50 [1] | pIC50 [2]
C[C@H](Nc1nc(Cl)nc2c1ccn2[C@@H]1O[C@H](CS(=O)(=O)CP(=O)(O)O)[C@@H](O)[C@H]1O)c1ccc(F)cc1F [Compound 183, [(2S,3S,4R,5R)-5-[2-chloro-4-[[(1S)-1-(2,4-difluorophenyl)ethyl]-amino]pyrrolo[2,3-d]-pyrimidin-7-yl]-3,4-dihydroxy-tetrahydro-furan-2-yl]methyl-sulfonylmethylphos-phonic acid] | > 8.00 | > 8.00 | – | –
CCOP(=O)(O)COC[C@H]1O[C@@H](n2ccc3c(NC4CCCC4)nc(Cl)nc32)[C@H](O)[C@@H]1O [Compound 184, [(2R,3S,4R,5R)-5-[2-chloro-4-(cyclopentyl-amino)pyrrolo[2,3-d]-pyrimidin-7-yl]-3,4-dihydroxy-tetrahydro-furan-2-yl]methoxy-methylethoxy-phos-phinic acid] | – | – | < 6.00 | 6.00 to 7.00
CN(c1nc(Cl)nc2c1ncn2[C@@H]1O[C@H](COCP(=O)(O)O)[C@@H](O)[C@H]1O)C1CCCC1 [Compound 186, [(2R,3S,4R,5R)-5-[2-chloro-6-[cyclopentyl-(methyl)amino]purin-9-yl]-3,4-dihydroxy-tetrahydrofuran-2-yl]-methoxymethylphos-phonic acid] | > 8.00 | 7.00 to 8.00 | – | –
C[C@@H](Nc1nc(C#N)nc2c1ccn2[C@@H]1O[C@H](COCP(=O)(O)O)[C@@H](O)[C@H]1O)c1ccc(F)cc1F [Compound 189, [(2R,3S,4R,5R)-5-[2-cyano-4-[[(1R)-1-(2,4-difluorophenyl)ethyl]-amino]pyrrolo[2,3-d]-pyrimidin-7-yl]-3,4-dihydroxy-tetrahydro-furan-2-yl]methoxy-methylphosphonic acid] | > 8.00 | > 8.00 | – | –
O=P(O)(O)COC[C@H]1O[C@@H](n2ccc3c(N4CCCC4)nc(Cl)nc32)[C@H](O)[C@@H]1O [Compound 190, [(2R,3S,4R,5R)-5-(2-chloro-4-pyrrolidin-1-yl-pyrrolo[2,3-d]-pyrimidin-7-yl)-3,4-dihydroxy-tetrahydro-furan-2-yl]methoxy-methylphosphonic acid] | > 8.00 | > 8.00 | – | –
C[C@@H](Nc1nc(Cl)nc2c1ccn2C1O[C@H](COCP(=O)(O)O)[C@@H](O)[C@H]1O)c1ccc(C2CC2)cc1 (stereo partly drawn) [Compound 197, [(2R,3S,4R,5R)-5-[2-chloro-4-[[(1R)-1-(4-cyclopropylphenyl)-ethyl]amino]pyrrolo-[2,3-d]pyrimidin-7-yl]-3,4-dihydroxy-tetra-hydrofuran-2-yl]-methoxymethylphos-phonic acid] | > 8.00 | > 8.00 | – | –
C[C@H](Nc1nc(Cl)nc2c1ccn2[C@@H]1O[C@H](COCP(=O)(O)O)[C@@H](O)[C@H]1O)c1ccc(C2CC2)cc1 [Compound 198, [(2R,3S,4R,5R)-5-[2-chloro-4-[[(1S)-1-(4-cyclopropylphenyl)-ethyl]amino]pyrrolo-[2,3-d]pyrimidin-7-yl]-3,4-dihydroxy-tetra-hydrofuran-2-yl]-methoxymethylphos-phonic acid] | > 8.00 | > 8.00 | – | –
N#Cc1nc(N2CC3CCCC3C2)c2ccn([C@@H]3O[C@H](COCP(=O)(O)O)[C@@H](O)[C@H]3O)c2n1 (stereo partly drawn) [Compound 201, [(2R,3S,4R,5R)-5-[4-(3,3a,4,5,6,6a-hexa-hydro-1H-cyclopenta-[c]pyrrol-2-yl)-2-cyano-pyrrolo[2,3-d]-pyrimidin-7-yl]-3,4-dihydroxy-tetrahydro-furan-2-yl]methoxy-methylphosphonic acid] | > 8.00 | > 8.00 | – | –
